Results from BindingDB's records for doi:10.1021/jm0104062 (Louis Pasteur University, 2002).

Molecular target: P2Y purinoceptor 1 (Homo sapiens, UniProt P47900)
Experiment: pA2 value was evaluated against P2Y purinoceptor 1

Sequence of P2Y purinoceptor 1 (P47900 whole entry): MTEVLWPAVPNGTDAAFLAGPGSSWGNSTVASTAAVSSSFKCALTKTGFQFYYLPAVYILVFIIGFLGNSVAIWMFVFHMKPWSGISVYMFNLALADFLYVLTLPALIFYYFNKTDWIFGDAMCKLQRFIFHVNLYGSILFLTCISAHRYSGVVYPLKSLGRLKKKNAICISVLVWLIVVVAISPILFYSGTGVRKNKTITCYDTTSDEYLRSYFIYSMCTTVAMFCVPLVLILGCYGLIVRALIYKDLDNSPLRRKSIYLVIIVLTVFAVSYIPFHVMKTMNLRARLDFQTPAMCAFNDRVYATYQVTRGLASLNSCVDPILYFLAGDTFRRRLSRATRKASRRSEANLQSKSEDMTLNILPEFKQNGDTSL

SMILES: CNc1nc(C)nc2c1ncn2C1CC(OP(=O)(O)O)C(COP(=O)(O)O)O1 (stereo unspecified)
- Kd: 77.6 nM
